US12389907B2, “Compounds with nematicidal activity to pinewood nematode Bursaphelenchus xylophilus” (KOREA ADVANCED INSTITUTE OF SCIENCE AND TECHNOLOGY, priority 2023, dated 2025)

Tested on: pinewood nematode (Bursaphelenchus xylophilus)
Test: Nematode screening: mortality of pinewood nematode in 96-well plate, propidium iodide staining
Format: cell-based
Conditions: compound dissolved in polar solvent DMSO, nematode treated with the solution
Experimental: Nematode Screening Method and Test Results
(1) A pinewood nematode sample was prepared so that 130 to 150 nematodes were present per 40 μL.
(2) The pinewood nematode sample was dispensed into a 96-well plate by 40 μL. Triplicates were prepared for each sample.
(3) Each compound was dispensed into each well containing the pinewood nematode sample. The tested compounds were (±)-orthosporin and 6,8-dihydroxy-3-methylisocoumarin, and each compound was dissolved in 1% DMSO solvent at a concentration of 20 μM. The chemical formulas of the compounds are illustrated in FIG. 1.
(4) After 120 hours, 20 μL of 50 μM propidium iodide was dispensed into each well containing the sample, and then shaking incubation was performed at RT for 15 minutes.
(5) The mortality rate was evaluated by counting only dead pinewood nematodes stained red in the total number of nematodes using a fluorescence microscope.

Structure (SMILES)	effect of killing the nematode
CC(O)Cc1cc2cc(O)cc(O)c2c(=O)o1 (racemic) [Chemical Formula 3, 6,8-dihydroxy-3-(2-hydroxypropyl)-1H-isochromen-1-one]	have the effect of killing the nematode
Cc1cc2cc(O)cc(O)c2c(=O)o1 [Chemical Formula 2, 6,8-dihydroxy-3-methyl-1H-isochromen-1-one]	have the effect of killing the nematode
